# Laboratory results: patent US20030171306A1, “Cancer treatment method” (priority 2002, published 2003)
# Structures can show the parent of a compound that is named as a salt.
# Columns and labels:
# [1] = tested on: normal progenitor cells; assay: Cell based assays utilized herein, PDE4 inhibitor used alone; conditions: without forskolin
# [2] = tested on: expanded CD34+ stem cells; assay: Flow cytometric (FACS) evaluation of surviving and apoptotic fractions of expanded CD34+ cells; type: cell-based, human
# Description: A T-test analysis ([…], with application of either equal or unequal variance [difference in standard error of the mean (sem) < or >3-fold, respectively) was performed to compare between treatment groups to determine if statistically significant differences existed (MS Excel, SAS JMP).
# [3] = tested on: human RKO colon tumor line; assay: Tumor cell growth after chemoprotectant regimen and paclitaxel, sulforhodamine B; type: cell-based; conditions: forskolin 100 μM plus PDE4 inhibitor 1 μM, then paclitaxel 100 nM 24 h, versus DMSO
# Description: (§1) The human tumor cell lines HT-29 (colon: ATCC #HTB 38), RKO (colon, ATCC #HTB 130), lines A549 (lung, ATCC #CCL 185), and MDA468 (breast, ATCC #HTB 132) were obtained from the American Type Culture Collection and maintained in DMEM containing 10% FBS. Tumor cells were grown at 37° C. in a humidified atmosphere of 5% CO2. Adherent tumor cells were seeded into 96 well plates and incubated for six hours to allow for attachment. After six hours the chemoprotectants forskolin (100 μM) plus rolipram (1 μM) or forskolin (100 μM) plus ariflo (1 μM) were added. After overnight incubation, paclitaxel (100 nM) was added for 24 hours. Cells were then washed free of chemoprotectants and paclitaxel, placed in fresh media, and grown for 5 days. Growth was measured daily using sulforhodamine B (Skehan P. et. al., (1990), J. Nat'l Cancer Inst 82:1107-12). The results are depicted in FIG. 8.
# [4] = tested on: human HT-29 colon tumor line; assay: as above; type: cell-based; conditions: forskolin 100 μM plus PDE4 inhibitor 1 μM, then paclitaxel 100 nM 24 h, versus DMSO
# Description: as §1
# [5] = tested on: human A549 lung tumor line; assay: as above; type: cell-based; conditions: for effect of chemoprotectant regimen on paclitaxel inhibition of tumor cell growth: forskolin 100 μM plus PDE4 inhibitor 1 μM, then paclitaxel 100 nM 24 h
# Description: as §1
# [6] = tested on: multiple stage neutrophil progenitors; assay: CD15 neutrophil antigen cell-based ELISA (CELISA); conditions: for CD15 signal from the cell cultures with increasing concentrations of the drug: anti-neoplastic drug on expanded CD34+ cells, 24 h
# Description: Three methods, more completely described in the following examples, were utilized for a determination of cell survival and ability to produce daughter cells of primary human neutrophil progenitors: (1) a FACS assay which determined the percent of live cells by size and granularity; (2) a colony forming assay which measured the number of CFU-GM progenitors (a specific early stage neutrophil progenitor); and (3) a cell-based ELISA which measured CD15 antigen the value of which was proportional to the number of neutrophil lineage cells. This assay allows evaluation of neutrophil progenitors (cells that can divide and produce daughter neutrophil-lineage cells) at multiple stages of differentiation.
# Expanded CD34^+ stem cells were isolated as described in Example 2 and grown in complete growth media. The expanded CD34^+ cells were treated with DMSO or rolipram plus forskolin as previously described. […] After the treatment, the cells were counted, washed twice with 4 ml of HBSS supplemented with 2% FBS, and resuspended in complete growth media. The expression of CD15 antigen was used as a measure of the number of neutrophil lineage cells expanded from surviving progenitors of multiple stages of differentiation.
# The cells were plated at a set number into 96-well plates in 100 μl volume per well of complete media. […] The plates were harvested at different time points by centrifuging at 450 G for 10 minutes at room temperature (RT) and the cells were washed several twice in HBSS by centrifugation of the plates. The cells were removed by suspension twice in HBSS with 5 mM EDTA with 100 μl per well and transfer of the total 200 μl volume to capture plates (Costar DNA-bind, #2498) that had been pretreated with 1% gluteraldehyde and stored (Warren et al., 1995 Stem Cells 13:167-174).
# For CELISA, the preservative solution (PBS, 0.1% BSA, 0.1% azide) was removed from the capture plate and the wells were washed with 100 μl PBS. […] The plates were washed twice with 300 μl PBS/well and incubated with a secondary antibody (goat anti-mouse IgM-biotin, Sigma B-9265, 0.105 μg/well, 100 μl PBS with 5% goat sera) at RT for 60 min. After three to six 200 μl/well washes, strepavidin-horseradish peroxidase (Pierce 21126, 0.1 μg/well in a 1% solution of stable peroxide buffer, Pierce 34062) was added. The plates were incubated for ten minutes and washed three to six times with 200 μl/well. For the final detection step, the chemiluminescent reagent Supersignal® Ultra (Pierce 34075) prepared just prior to use by mixing equal parts of the luminol enhancer and the stable peroxide was added to the plates (100 μl per well) and gently mixed for five minutes at RT. The plates were read on a Wallace Victor II machine for one second for chemiluminescence at 425 nm.
# The data from the Wallac Victor were transferred to Excel for analysis. Averages of replicate wells from treated cells were calculated along with standard error of the mean (sem) of the counts minus the background signal from replicate wells with media only (no cells).
# [7] = tested on: specific early neutrophil progenitors (CFU-GMs); assay: CFU-GM colony forming assay; type: cell-based, human; conditions: for number of CFU-GM colonies with increasing amounts of the drug: anti-neoplastic drug on expanded CD34+ cells, 24 h, colonies counted after 12 to 14 days
# Description: Expanded CD34^+ cells, prepared according to the procedure of Example 2, were isolated and pretreated with DMSO or rolipram plus forskolin as described in Example 2. […] The cells were then plated in a semi solid growth medium for the growth of CFU-GMs following a published method with the exception that the G-CSF (10 ng/ml) was included in place of GM-CSF and erythropoietin (Dornsife, R E et al., Antimicrob Agents Chemother, 35: 322-328, (1991); Dornsife R E; Averett D R., Antimicrob Agents Chemother, 40(2): 514-519, (1996)). The CFU-GMs were counted after 12 to 14 days. The results are depicted in FIG. 3.
# [8] = tested on: CCL64 mink lung epithelial cells; assay: Protection of mink lung epithelial cells from paclitaxel, sulforhodamine B stain; type: cell-based; conditions: PDE4 inhibitor 1 μM plus forskolin 100 μM 24 h, then paclitaxel 10 nM 48 h
# Description: CCL64 mink lung epithelial cells (ATCC #CCL-64) were grown in DMEM supplemented with 10% FBS and 1% penicillin-streptomycin and seeded into 96-well plates. After overnight incubation at 37° C. cells were treated with 100 μM forskolin in combination with each of the PDE4 inhibitors (1 μM). After 24 hours of treatment, paclitaxel was added to wells at various concentrations up to 10 nM. Time zero control plates were harvested by staining with Sulforhodamine B (Skehan P. et. al., (1990), J. Nat'l Cancer Inst 82:1107-12.) After an additional 48 hours of incubation at 37° C., the plates were harvested and stained with sulforhodamine B. The absorbance of the samples was read at the optical density of 562 nm. The no-drug controls were set to 100% and values were normalized to time zero control. As indicated in Example 8, cells were pre-treated with forskolin plus various PDE4 inhibitors (1 μM) and then challenged with paclitaxel at various concentrations. The sulforhodamine B signal from the cells was expressed as percent of control (no-drug, vehicle only). An increase in signal, indicating protection, ranged from 85% to 130% with the cells pre-treated with forskolin plus a particular PDE4 inhibitor and followed by a paclitaxel challenge at 10 nM.
smiles,measurement,setting,value
COc1ccc(C2CNC(=O)C2)cc1OC1CCCC1 (stereo not shown) [Rolipram],protective effect,[1],little protective effect
same,apoptotic fraction in paclitaxel treated cells compared with DMSO pretreatment,[2]; pretreatment with rolipram plus forskolin,significantly reduced the apoptotic fraction
same,surviving cell fraction,"[2]; rolipram 1 μM plus forskolin 100 μM 24 h, then paclitaxel 30 nM 24 h",86%
same,surviving cell fraction,"[2]; rolipram 1 μM plus forskolin 100 μM 24 h, then paclitaxel 100 nM 24 h",81%
same,surviving cell fraction,"[2]; rolipram 1 μM plus forskolin 100 μM 24 h, then paclitaxel 300 nM 24 h",63%
same,surviving cell fraction,"[2]; rolipram 1 μM plus forskolin 100 μM 24 h, then paclitaxel 600 nM 24 h",59%
same,effect of chemoprotectant regimen on paclitaxel inhibition of tumor cell growth,[3],did not effect the inhibition of tumor cell growth
same,effect of chemoprotectant regimen on paclitaxel inhibition of tumor cell growth,[4],did not effect the inhibition of tumor cell growth
same,effect of chemoprotectant regimen on paclitaxel inhibition of tumor cell growth,[5],no additional protection
same,effect of pretreatment on toxicity towards neutrophil progenitors compared to DMSO,"[6]; rolipram plus forskolin, then carboplatin",no significant difference
same,effect of pretreatment on toxicity towards neutrophil progenitors compared to DMSO,"[6]; rolipram plus forskolin, then cisplatin",significantly increase the toxicity
same,effect of pretreatment on toxicity towards neutrophil progenitors compared to DMSO,"[6]; rolipram plus forskolin, then doxorubicin",significantly increase the toxicity
same,CD15 signal after pretreatment versus DMSO,"[6]; rolipram plus forskolin, then paclitaxel, 5-FU, etoposide, vinblastine, vinorelbine, methotrexate or topotecan, 99% confidence",increased the CD15 signal antigen to a statistically significant level
same,survival of CFU-GM progenitors,"[7]; rolipram plus forskolin prior to 5-fluorouracil, etoposide or paclitaxel, versus DMSO",increased the survival of CFU-GM progenitors
same,Sulforhodamine B signal (survival) as percent of no-drug control,[8],110%
"CCC1=C[C@@H]2CN(C1)Cc1c([nH]c3ccccc13)[C@@](C(=O)OC)(c1cc3c(cc1OC)N(C)[C@H]1[C@@](O)(C(=O)OC)[C@H](OC(C)=O)[C@]4(CC)C=CCN5CC[C@]31[C@@H]54)C2 (relative stereo) [Vinorelbine, 3′,4′-didehydro-4′-deoxy-C′-norvincaleukoblastine [R-(R*,R*)-2,3-dihydroxybutanedioate (1:2)(salt)]]",CD15 signal from the cell cultures with increasing concentrations of the drug,[6],decreased
O=c1c2cccnc2n(-c2cccc([N+](=O)[O-])c2)c(=O)n1Cc1ccncc1 [RS-25344],Sulforhodamine B signal (survival) as percent of no-drug control,[8],105%
CCn1c(=O)c2ccccc2n(-c2cccc([N+](=O)[O-])c2)c1=O [Nitraquazone],Sulforhodamine B signal (survival) as percent of no-drug control,[8],115%
"CC[C@@]1(O)C(=O)OCc2c1cc1n(c2=O)Cc2cc3c(CN(C)C)c(O)ccc3nc2-1 [topotecan, (S)-10-[(dimethylamino)methyl]-4-ethyl-4,9-dihydroxy-1H-pyrano[3′,4′,6,7]indolizino[1,2-b]quinoline-3,14(4H,12H)-dione monohydrochloride]",CD15 signal from the cell cultures with increasing concentrations of the drug,[6],decreased
"COc1cc([C@@H]2c3cc4c(cc3[C@@H](O[C@@H]3O[C@@H]5CO[C@@H](C)O[C@H]5[C@H](O)[C@H]3O)[C@H]3COC(=O)[C@H]23)OCO4)cc(OC)c1O [Etoposide, 4′-demethyl-epipodophyllotoxin 9[4,6-0-(R)-ethylidene-β-D-glucopyranoside]]",CD15 signal from the cell cultures with increasing concentrations of the drug,[6],decreased
same,number of CFU-GM colonies with increasing amounts of the drug,[7],decreased in a dose dependent manner
"CN(Cc1cnc2nc(N)nc(N)c2n1)c1ccc(C(=O)N[C@@H](CCC(=O)O)C(=O)O)cc1 [methotrexate, N-[4[[(2,4-diamino-6-pteridinyl)methyl]methylamino]benzoyl]-L-glutamic acid]",CD15 signal from the cell cultures with increasing concentrations of the drug,[6],decreased
"O=c1[nH]cc(F)c(=O)[nH]1 [5-fluorouracil, 5-fluoro-2,4-(1-H,3H) pyrimidinedione]",CD15 signal from the cell cultures with increasing concentrations of the drug,[6],decreased
same,number of CFU-GM colonies with increasing amounts of the drug,[7],decreased in a dose dependent manner
"COc1ccc(C(=O)Nc2c(Cl)cncc2Cl)cc1OC1CCCC1 [Piclamilast, N-(3,5-dichloropyrid-4-yl)-3-cyclopentyloxy-4-methoxybenzamide]",Sulforhodamine B signal (survival) as percent of no-drug control,[8],130%
COC(=O)c1cccc(-n2c(=O)n(Cc3ccccc3)c(=O)c3cccnc32)c1 [CP-77059],Sulforhodamine B signal (survival) as percent of no-drug control,[8],85%
"CC[C@]1(O)C[C@@H]2CN(CCc3c([nH]c4ccccc34)[C@@](C(=O)OC)(c3cc4c(cc3OC)N(C)[C@H]3[C@@](O)(C(=O)OC)[C@H](OC(C)=O)[C@]5(CC)C=CCN6CC[C@]43[C@@H]65)C2)C1 [Vinblastine, vincaleukoblastine sulfate]",CD15 signal from the cell cultures with increasing concentrations of the drug,[6],decreased
"CC(=O)O[C@H]1C(=O)[C@@]2(C)[C@H]([C@H](OC(=O)c3ccccc3)[C@]3(O)C[C@H](OC(=O)[C@H](O)[C@@H](NC(=O)c4ccccc4)c4ccccc4)C(C)=C1C3(C)C)[C@]1(OC(C)=O)CO[C@@H]1C[C@@H]2O [Paclitaxel, 5β,20-epoxy-1,2α,4,7β,10β,13α-hexa-hydroxytax-11-en-9-one 4,10-diacetate 2-benzoate 13-ester with (2R,3S)-N-benzoyl-3-phenylisoserine]",surviving cell fraction,"[2]; DMSO pretreatment only 24 h, then paclitaxel 30 nM 24 h",45%
same,surviving cell fraction,"[2]; DMSO pretreatment only 24 h, then paclitaxel 100 nM 24 h",27%
same,surviving cell fraction,"[2]; DMSO pretreatment only 24 h, then paclitaxel 300 nM 24 h",23%
same,surviving cell fraction,"[2]; DMSO pretreatment only 24 h, then paclitaxel 600 nM 24 h",18%
same,inhibition of tumor cell growth,[5]; paclitaxel 100 nM 24 h,not completely inhibited
same,CD15 signal from the cell cultures with increasing concentrations of the drug,[6],decreased
same,number of CFU-GM colonies with increasing amounts of the drug,[7],did not exhibit a good dose response
"CCCCn1c(=O)c2c(ncn2CC(C)=O)n(CCCC)c1=O [Denbufylline, 7-acetonyl,1,3dibutylxanthine]",Sulforhodamine B signal (survival) as percent of no-drug control,[8],95%
COC(=O)N1C[C@@H](c2ccc(OC)c(OC3CCCC3)c2)[C@](C)(C(C)=O)C1 [GI193600X],Sulforhodamine B signal (survival) as percent of no-drug control,[8],120%
"COc1ccc([C@]2(C#N)CC[C@@H](C(=O)O)CC2)cc1OC1CCCC1 [Ariflo, cis-4-cyano-4-[3-(cyclopentyloxy)-4-methoxyphenyl]cyclohexane-1-carboxylic acid]",effect of chemoprotectant regimen on paclitaxel inhibition of tumor cell growth,[3],did not effect the inhibition of tumor cell growth
same,effect of chemoprotectant regimen on paclitaxel inhibition of tumor cell growth,[4],did not effect the inhibition of tumor cell growth
same,effect of chemoprotectant regimen on paclitaxel inhibition of tumor cell growth,[5],no additional protection
same,Sulforhodamine B signal (survival) as percent of no-drug control,[8],110%
